In general, melting point refers to the temperature of the solid-liquid transition. What is called IC50 is the midpoint of a concentration-inhibition curve. By inhibition is commonly meant the drop in the measured response relative to a control, in per cent.

Structures are written as SMILES.

Data set [1] addresses T1, human FSH receptor (Homo sapiens, UniProt P23945).
T1 construct: host or cells: CHO-K1 (CHO FSH-R 6CRE-Luc, 1D7 cells)
T1 sequence (P23945 18-695): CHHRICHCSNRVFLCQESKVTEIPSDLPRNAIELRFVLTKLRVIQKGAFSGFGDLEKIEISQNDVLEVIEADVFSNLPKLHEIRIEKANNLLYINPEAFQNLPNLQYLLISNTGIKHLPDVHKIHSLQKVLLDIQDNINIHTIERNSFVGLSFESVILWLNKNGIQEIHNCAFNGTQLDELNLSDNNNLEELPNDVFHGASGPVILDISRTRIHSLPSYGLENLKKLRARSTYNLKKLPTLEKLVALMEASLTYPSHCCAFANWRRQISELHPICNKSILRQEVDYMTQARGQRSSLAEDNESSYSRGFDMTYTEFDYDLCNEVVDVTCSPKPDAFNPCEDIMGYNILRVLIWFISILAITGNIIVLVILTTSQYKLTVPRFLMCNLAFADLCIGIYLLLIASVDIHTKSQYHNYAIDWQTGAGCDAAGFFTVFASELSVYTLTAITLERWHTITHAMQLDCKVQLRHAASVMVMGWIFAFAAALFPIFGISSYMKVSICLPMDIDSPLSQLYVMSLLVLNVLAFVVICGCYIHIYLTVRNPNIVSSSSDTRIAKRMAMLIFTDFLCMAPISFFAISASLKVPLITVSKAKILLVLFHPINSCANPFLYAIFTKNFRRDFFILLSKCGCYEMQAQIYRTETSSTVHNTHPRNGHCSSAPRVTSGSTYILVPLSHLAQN
In words: Follicle-Stimulating Hormone Receptor-Dependent Cre-Luciferase Reporter Gene Assay (CHO FSH-R 6CRE-Luc cells). The format is cell-based. The following applies: for IC50: dose-response format, in presence of EC50 of purified human FSH; for inhibition at 30 µM: 2-dose format, concentration in parentheses 30 μM, inhibition of the response to EC50 of FSH. The text has this: Follicle-Stimulating Hormone Receptor-Dependent Cre-Luciferase Reporter Gene Assay for the Identification of Follicle-Stimulating Hormone (FSH) Antagonists
A Chinese hamster ovarian cell line that stably produces the human FSH receptor and a luciferase reporter gene regulated by cAMP response elements was used to identify and determine the relative potencies of human FSH receptor antagonists. See for example, Kelton, C. A., et al. Mol. Cell. Endocrinol. 89:141-151 (1992), Tilly, J. L., et al. Endocrinology 131:799-806(1992), and George, S. E., et al. J. Biomol. Screening 2:235-240 (1997).
Compound Vehicle: Stock compounds were solubilized in an appropriate vehicle, e.g., phosphate buffered saline (PBS) or dimethyl sulfoxide (DMSO), at 30 mM. The compounds were subsequently diluted in DMSO to working dilutions of 1 and 20 or 30 mM for 2-dose testing format and 1 μM-10 mM for dose-response format. The DMSO dilutions were diluted 500-fold in sterile growth medium [D-MEM/F-12 (GIBCO/BRL; Grand Island, NY) containing 15 mM HEPES, 2 mM 1-glutamine, pyridoxine hydrochloride, phenol red and 5% FetalClone® II (HyClone Laboratories, Inc; Logan, Utah), 0.2% DMSO, 100 units penicillin G/ml, and 100 μg streptomycin sulfate/ml (GIBCO/BRL)]. The concentration of the vehicle in each of the compound dilutions was the same.
Positive Controls: Purified human FSH (>98%) was purchased from Cortex Biochem, Inc. (San Leandro, Calif.) and 3-[(2S*,5R*)-5-{[2-(1H-Indol-3-yl)-ethylcarbamoyl]-methyl}-4-oxo-2-(5-phenylethynyl-thiophen-2-yl)-thiazolidin-3-yl]-benzamide (an FSH-R thiazolidinone antagonist) was prepared by processes described by R. A. Scheuerman et al. in U.S. Pat. No. 6,426,357 (Affymax).
The CHO FSH-R 6CRE-Luc cells (1D7 cells) were obtained from Affymax (Palo Alto, Calif.). These Chinese hamster ovary cells (CHO-K1) were engineered genetically to stably express the recombinant human FSH receptor gene and a luciferase reporter gene under the regulation of 6 copies of a cAMP response element. The cells were plated one day prior to treatment into 96-well white opaque plates at a density of 50,000 cells/100 μl/well in growth medium. On the day of treatment, the growth medium was removed from the wells by aspiration and 50 μl of fresh growth medium was added to each well. The cells were incubated at 37° C. in a humidified incubator with 5% CO2/95% air.
The treated cells were incubated for 4 hours at 37° C. in a humidified incubator with 5% CO2/95% air. At the end of the incubation period, luciferase activity was measured by chemiluminescence using a commercially available kit (LucScreen, Tropix, Inc., Bedford, Mass.) according to the manufacturer's specifications, except that Buffer 1 and Buffer 2 were mixed together in equal proportion prior to the addition of 100 μl of the combined reagents to each well. Chemiluminescence was detected using a luminometer (EG & G Berthold Microlumat LB 96 P, Wallac, Gaithersburg, Md.) with chemiluminescence measured for 1 sec/well. Background luminescence was measured for each well prior to the addition of the LucScreen reagent.
In the 96-well 2-dose format, each compound was tested in duplicate at each dose. […] One plate was used to test a maximum of 22 compounds.
The EC50 of purified human FSH alone was tested in triplicate with each test compound. The doses chosen to test each compound were extrapolated from the initial 2-dose screening process. Along with the test compounds, purified human FSH also was tested in a dose response (0.03, 0.1, 0.3, 1, 3, 10, and 30 ng/ml) for a positive control and quality control. One plate was used for 3 test compounds and the FSH positive control.
Luciferase activity is expressed as relative light units/sec/well. Luciferase activity in antagonist was compared to the appropriate negative and positive controls. For 2-dose testing, results are reported as luciferase activity and are expressed as percent inhibition of the response obtained from the EC50 of FSH.
(In a reporter assay the amount or activity of a reporter protein is the signal.)

`O=C(NCCc1ccc(O)cc1)c1ccc2n1Cc1ccccc1N(C(=O)COc1ccc(Cl)cc1)C2` [Example 68, 10-[(4-CHLOROPHENOXY)ACETYL]-N-[2-(4-HYDROXYPHENYL)ETHYL]-10,11-DIHYDRO-5H-PYRROLO[2,1-C][1,4]BENZODIAZEPINE-3-CARBOXAMIDE]: the melting point is 206 to 207 °C. The IC50 in data set [1] is 13.2 µM.

Regarding `O=C(NCc1ccc2c(c1)OCO2)c1ccc2n1Cc1ccccc1N(C(=O)COc1ccc(Cl)cc1)C2` [Example 69], the melting point fell in the range of 168 to 169 °C. Also, the inhibition at 30 µM in data set [1] came to 21%.

Consider `Cc1ccc(CNC(=O)c2ccc3n2Cc2ccccc2N(C(=O)COc2ccc(Cl)cc2)C3)cc1` [Example 70, 10-[(4-CHLOROPHENOXY)ACETYL]-N-(4-METHYLBENZYL)-10,11-DIHYDRO-5H-PYRROLO[2,1-C][1,4]BENZODIAZEPINE-3-CARBOXAMIDE], for which the melting point is 174 to 176 °C. The inhibition at 30 µM in data set [1] turned out to be 17%.

The compound `Cc1cccc(CNC(=O)c2ccc3n2Cc2ccccc2N(C(=O)COc2ccc(Cl)cc2)C3)c1` [Example 71, 10-[(4-CHLOROPHENOXY)ACETYL]-N-(3-METHYLBENZYL)-10,11-DIHYDRO-5H-PYRROLO[2,1-C][1,4]BENZODIAZEPINE-3-CARBOXAMIDE] gave a melting point of 130 to 131 °C. For the same compound, the inhibition at 30 µM in data set [1] is 7%.

Turning to `O=C(NCc1cccc(C(F)(F)F)c1)c1ccc2n1Cc1ccccc1N(C(=O)COc1ccc(Cl)cc1)C2` [Example 72, 10-[(4-CHLOROPHENOXY)ACETYL]-N-[3-(TRIFLUOROMETHYL)BENZYL]-10,11-DIHYDRO-5H-PYRROLO[2,1-C][1,4]BENZODIAZEPINE-3-CARBOXAMIDE], the melting point fell in the range of 143 to 145 °C. Moreover, in data set [1], the IC50 is above 30 µM.

`O=C(NCC(O)c1ccccc1)c1ccc2n1Cc1ccccc1N(C(=O)COc1ccc(Cl)cc1)C2` (stereo not drawn) [Example 73]: the melting point was 157 to 158 °C. The IC50 in data set [1] came to 25.1 µM.

On to `O=C(Nc1ccc(-c2ccccc2)cc1)c1ccc2n1Cc1ccccc1N(C(=O)COc1ccc(Cl)cc1)C2` [Example 74, N-(1,1′-BIPHENYL-4-YL)-10-[(4-CHLOROPHENOXY)ACETYL]-10,11-DIHYDRO-5H-PYRROLO[2,1-C][1,4]BENZODIAZEPINE-3-CARBOXAMIDE], for which the melting point was in the range of 201 to 202 °C. Further, the inhibition at 30 µM in data set [1] is 6%.

On to `COC(=O)c1ccc(CNC(=O)c2ccc3n2Cc2ccccc2N(C(=O)COc2ccc(Cl)cc2C)C3)cc1` [Example 77, METHYL 4-{[({10-[(4-CHLORO-2-METHYLPHENOXY)ACETYL]-10,11-DIHYDRO-5H-PYRROLO[2, 1-C][1,4]BENZODIAZEPIN-3-YL}CARBONYL)AMINO]METHYL}BENZOATE], for which the melting point lay within 165 to 167 °C. Further, the inhibition at 30 µM in data set [1] is 3.5%.

Turning to `COc1cc(CNC(=O)c2ccc3n2Cc2ccccc2N(C(=O)COc2ccc(Cl)cc2C)C3)ccc1O` [Example 78, 10-[(4-CHLORO-2-METHYLPHENOXY)ACETYL]-N-(4-HYDROXY-3-METHOXYBENZYL)-10,11-DIHYDRO-5H-PYRROLO[2,1-C][1,4]BENZODIAZEPINE-3-CARBOXAMIDE], the melting point was in the range of 167 to 168 °C. For the same compound, in data set [1], the inhibition at 30 µM worked out at 33%.

Turning to `Cc1cc(-c2ccccc2C)ccc1NC(=O)c1ccc2n1Cc1ccccc1N(C(=O)COc1ccc(Cl)cc1)C2` [Example 79], the melting point fell in the range of 159 to 161 °C. In data set [1], the inhibition at 30 µM was 13%.

For the compound `O=C(NCc1ccc(Cl)c(Cl)c1)c1ccc2n1Cc1ccccc1N(C(=O)CSc1ccc(Br)cc1)C2` [Example 81, 10-{[(4-BROMOPHENYL)THIO]ACETYL}-N-(3,4-DICHLOROBENZYL)-10,11-DIHYDRO-5H-PYRROLO[2,1-C][1,4]BENZODIAZEPINE-3-CARBOXAMIDE], the melting point is 150 °C. Further, in data set [1], the IC50 was above 30 µM.

Compound `COc1cc(CNC(=O)c2ccc3n2Cc2ccccc2N(C(=O)CSc2ccc(Br)cc2)C3)ccc1O` [Example 82, 10-{[(4-BROMOPHENYL)THIO]ACETYL}-N-(4-HYDROXY-3-METHOXYBENZYL)-10,11-DIHYDRO-5H-PYRROLO[2,1-C][1,4]BENZODIAZEPINE-3-CARBOXAMIDE] returned a melting point of 168 °C. Also, the inhibition at 30 µM in data set [1] stood at 37%.

Compound `Cc1ccc(CNC(=O)c2ccc3n2Cc2ccccc2N(C(=O)CSc2ccc(Br)cc2)C3)cc1` [Example 83, 10-{[(4-BROMOPHENYL)THIO]ACETYL}-N-(4-METHYLBENZYL)-10,11-DIHYDRO-5H-PYRROLO[2,1-C][1,4]BENZODIAZEPINE-3-CARBOXAMIDE] had a melting point of 131 to 132 °C. In data set [1], the inhibition at 30 µM is 24%.

`O=C(NCc1ccc2c(c1)OCO2)c1ccc2n1Cc1ccccc1N(C(=O)CSc1ccc(Br)cc1)C2` [Example 84]: the melting point is 154 to 155 °C. Moreover, the inhibition at 30 µM in data set [1] turned out to be 27%.

In the case of `O=C(NCc1cccc(C(F)(F)F)c1)c1ccc2n1Cc1ccccc1N(C(=O)CSc1ccc(Br)cc1)C2` [Example 85, 10-{[(4-BROMOPHENYL)THIO]ACETYL}-N-[3-(TRIFLUOROMETHYL)BENZYL]-10,11-DIHYDRO-5H-PYRROLO[2,1-C][1,4]BENZODIAZEPINE-3-CARBOXAMIDE], the melting point stood at 102 °C. In addition, in data set [1], the inhibition at 30 µM turned out to be 24%.

Regarding `O=C(NCCc1ccc(O)cc1)c1ccc2n1Cc1ccccc1N(C(=O)CSc1ccc(Br)cc1)C2` [Example 86, 10-{[(4-BROMOPHENYL)THIO]ACETYL}-N-[2-(4-HYDROXYPHENYL)ETHYL]-10,11-DIHYDRO-5H-PYRROLO[2,1-C][1,4]BENZODIAZEPINE-3-CARBOXAMIDE], the melting point lay within 168 to 169 °C. In data set [1], the inhibition at 30 µM came out at 35%.

For `O=C(NC1CCCc2ccccc21)c1ccc2n1Cc1ccccc1N(C(=O)CSc1ccc(Br)cc1)C2` (stereo not drawn) [Example 87, 10-{[(4-BROMOPHENYL)THIO]ACETYL}-N-(1,2,3,4-TETRAHYDRONAPHTHALEN-1-YL)-10,11-DIHYDRO-5H-PYRROLO[2,1-C][1,4]BENZODIAZEPINE-3-CARBOXAMIDE], the melting point was in the range of 163 to 165 °C. For the same compound, the inhibition at 30 µM in data set [1] amounted to 3%.

Regarding `Cc1ccccc1-c1ccc(C(=O)N2Cc3ccc(C(=O)NCc4ccc(C(=O)c5ccccc5)cc4)n3Cc3ccccc32)cc1C` [Example 88], the melting point is 148 to 150 °C. The IC50 in data set [1] is above 30 µM.

The values are drawn from patent publication US7691848B2, “Pyrrolobenzodiazepine arylcarboxamides and derivatives thereof as follicle-stimulating hormone receptor antagonists” (Wyeth, priority 2005, dated 2010).
